From patent US20250275938A1, “COMPOSITIONS AND METHODS FOR TREATMENT OF CANCER” (SCIROSBIO (FZC), priority 2022, published 2025)

Assays:
[1] = tested on: human pancreatic cancer (PANC1) cells; assay: MTT cell viability assay, PANC1; assay type: cell-based; conditions: 24 hours
Protocol: Cell lines and culture conditions: A human pancreatic cancer cell line PANC1 and human colon cancer cell line HCT116 were obtained from National Centre for Cell Science (NCCS), Pune, India. The PANC1 cells were sub-cultured in Dulbecco's Modified Eagle's Medium (DMEM) supplemented with 10% FBS at 5% C02 and 37° C. The HCT116 cells were sub-cultured in McCoy's 5A media supplemented with 10% FBS at 5% CO2 and 37° C. […] The cells were allowed to attach 70% to the surface prior to treatment. […] Suspensions were aspirated 10 times before treatment. Cells treated with vehicle control were used as a control. Cell viability assay: PANC1 and HCT116 cells ([…] cells/ml) were seeded in 96-well plates and exposed to different individual-drug treated groups with varying concentrations (0, 20, 40, 60, 80, 100, 120, 140, 160, 180 and 200 μM) for a period of 24 hours. The individual-treated groups include Group I: 5 Fluorouracil (5FU)-treated PANC1 and HCT116 cells; Group II: MET-treated PANC1 and HCT116 cells; Group III: EGCG-treated PANC1 and HCT116 cells and Group IV: 5FU+[…] PANC1 and HCT116 cells.

[2] = LC/MS of drugs and active metabolites in plasma and brain (blood brain barrier); assay type: in vivo, rat; conditions: for Detected mass in LC-MS Brain / Detected mass in LC-MS Plasma: NA = not detected
Protocol: T, M & E (Sigma Aldrich, St. Louis, USA) were dissolved in sterile water and administered intra peritoneally for 7 days (from day 21 to day 27; where the day of tumor induction is considered day 0) to a rat with the dose specified in Table-4 (TME: 50+80+150 mg/kg body weight). After 7 days of treatment (on day 28), blood (plasma) was collected and the rat was euthanized, immediately the brain tissue was collected and stored at −80° C. The brain tissue was then processed accordingly to measure active metabolites through LC/MS.
To 100 μl of plasma or brain (0.5 g crushed in 0.5 mL of sterile water), 20 μl of the working internal standard solution was added. The samples were deproteinised with acetonitrile and the supernatant (100 μl) was injected into the chromatographic system. For the brain, as described above, ciprofloxacin solution (20 μl) was added to 100 μl of crushed brain. Then, repeating the plasma sample process, 20 μl of the solution was injected into the chromatographic system.

[3] = tested on: human breast cancer (MDA-MB-453) cells; assay: MTT cell viability assay, MDA-MB-453; assay type: cell-based; conditions: 24 hours
Protocol: Cell lines and culture conditions: A human breast cancer cell line MDA-MB-453 and human bone cancer cell line SaoS2 were obtained from National Centre for Cell Science (NCCS), Pune, India. The MDA-MB-453 cells were sub-cultured in Dulbecco's Modified Eagle's Medium (DMEM) supplemented with 10% FBS at 5% CO2 and 37° C. The SaoS2 cells were sub-cultured in McCoy's 5A media supplemented with 10% FBS at 5% CO2 and 37° C. […] The cells were allowed to attach 70% to the surface prior to treatment. […] Suspensions were aspirated 10 times before treatment. Cells treated with vehicle control were used as a control. Cell viability assay: MDA-MB-453 and SaoS2 cells (5×10^3 cells/ml) were seeded in 96-well plates and exposed to different individual-drug treated groups with varying concentrations (0, 20, 40, 60, 80, 100, 120, 140, 160, 180 and 200 μM) for a period of 24 hours.

[4] = tested on: human hepatocellular carcinoma (HepG2) cells; assay: MTT cell viability assay, HepG2; assay type: cell-based; conditions: 24 hours
Protocol: Cell lines and culture conditions. A human hepatocellular carcinoma (HepG2) and ovarian cancer (SKOV3) cells were obtained from National Centre for Cell Science (NCCS), Pune, India. The cells HepG2 and SKOV3 were sub-cultured in Eagle's Minimum Essential Medium (EMEM) and McCoy's 5a supplemented with 10% FBS at 5% CO2 and 37° C. […] The cells were allowed to attach 70% to the surface prior to treatment. A stock solution of all the drugs (10 mg/ml) was made in distilled H2O and diluted to the required concentrations. Suspensions were aspirated 10 times before treatment. Cells treated with vehicle control were used as a control.

VEGF = assay: Immunohistochemistry of tumor sections, VEGF; assay type: in vivo, rat; conditions: i.p. 7 days; tumor-control 73.58%
Protocol: Immunohistochemistry. For immunohistochemistry (IHC) analysis, 4 μm thick tissue sections were deparaffinized in xylene and hydrated by immersing in a series of graded ethanol concentration (100%, 95%, 75% and 50%). Endogenous peroxidase activity was blocked by incubating sections in 3% H2O2 solution prepared in methanol at room temperature for 10 minutes and were washed with PBS twice for 5 minutes each. Antigen retrieval was performed by immersing the slides in 300 ml of retrieval buffer (10 mM citrate buffer, pH 6.0) for one hour at 100° C. and were rinsed twice in PBS. Sections were then incubated with approximately 100 μl diluted primary antibodies of Ki67 (1:100 dilution, Elabscience, Wuhan, China) and Vascular Endothelial Growth Factor (VEGF) (1:100 dilution, Elabscience, Wuhan, China) for 30 minutes at room temperature. The slides were then washed twice with PBS and were then incubated with approximately 100 μl of diluted secondary antibody (Cat No. E-IR-R213, Elabscience, Wuhan, China) at room temperature for 30 minutes. Slides were then washed in PBS for 5 minutes, followed by incubation with approximately 100 μl diluted Horse Radish Peroxidase (HRP) conjugate for 30 minutes. […] The staining intensities were quantified using IHC Profiler, a plugin in ImageJ software, to determine the H-score (Histo score).

[5] = tested on: HEK293T (Human Embryonic Kidney) cells; assay: Trypan blue exclusion cytotoxicity on normal cell line; assay type: cell-based; conditions: treated at IC50 values determined in U87MG and C6, 24 hours
Protocol: Cytotoxicity on a normal cell line.
Furthermore, to check for the cytotoxicity of the drugs, a trypan blue dye exclusion assay was performed on a normal cell line, HEK293T, using the IC50 values of each drug, individually and in combination, as determined in U87MG and C6 cells and shown in Table 2.

[6] = tested on: U87MG human glioma cell line; assay: MTT cell viability assay, U87MG; assay type: cell-based
Protocol: (§1) Cell lines and culture conditions. A human glioma cell line, U87MG, a rat glioma cell line, C6, and normal HEK293T (Human Embryonic Kidney) cells were obtained from National Centre for Cell Science (NCCS), Pune, India. The cells were sub-cultured in Dulbecco's Modified Eagle's Medium (DMEM) supplemented with 10% FBS at 5% CO2 and 37° C. At 85% confluence, the cells were harvested using 0.25% trypsin and seeded in 25 cm^2 flasks, 96 well, and 6-well plates, according to the experiment being performed. The cells were allowed to attach 70% to the surface prior to treatment. A stock solution of all the drugs (10 mg/ml) was made in a vehicle and diluted to the required concentrations. Suspensions were aspirated 10 times before treatment. Cells treated with vehicle control were used as a control.
(§2) Cell viability assay. U87MG and C6 cells (5×10^3 cells/ml) were seeded in 96-well plates and exposed to different individual-drug treated groups with varying concentrations (0, 10, 40, 80, 120, and 160 μM) for a period of 24 hours, whereas HEK293T cells (5×10^3 cells/ml) were seeded at the inhibitory concentration (IC) at 50% of drugs, either alone or in combination. The individual-treated groups include Group I: untreated control glioma cells; Group II: TMZ-treated glioma cells; Group III: MET-treated glioma cells; and Group IV: EGCG-treated glioma cells.
(§3) After a 24 hour treatment period, the cells were allowed to react with MTT for 4 hours in dark at 37° C. At the end of the incubation period, the dark purple formazan crystals formed were solubilized with DMSO and the absorbance was measured spectrophotometrically at 595 nm (Molecular Devices Spectra-Max M5, USA). The experiments were repeated at least three times. To determine the cell viability, the percentage of viability was calculated as follows:
(§4) % viability=[(Optical density {OD} of treated cells−OD of Blank)/(OD of control−OD of blank)]×100.
(§5) Calculation of IC50 value. The IC50 of a drug was determined using y=m(x)+c equation (where: ‘y’ & ‘x’ are the respective coordinates of y & x-axis, ‘m’ is the slope and ‘c’ is the constant) derived from the trendlines of each scattered plots MMT assay. […] The IC50 and IC25 were also calculated for the dual combinations. The IC50 for the triple combination was calculated by keeping the IC25 of the dual-combination constant, and the third drug was used in varying concentrations (0, 10, 40, 80, 120, and 160 μM) (Table 1).
(§6) Combination index of drugs. According to the Chou-Talalay method, The statistical Combination Index (CI) of the drugs was performed according to the Chou-Talay method (Ma et al, Stem Cell Reports, 2017 9(6):1948-1960) to determine whether various drug combinations were synergistic, additive, or antagonistic, as shown in Table 1. This was performed for Groups V-IX using the following formula:
(§7) Combination index (CI) of Drugs 1 & 2=(IC50 of drug-1 in combination/IC50 of drug-1 individually)+(IC50 of drug-2 in combination/IC50 of drug-2 individually).

Ki67 = assay: Immunohistochemistry of tumor sections, Ki67; assay type: in vivo, rat; conditions: i.p. 7 days; tumor-control 36.73%
C6 rat glioma cell line = assay: MTT cell viability assay, C6; assay type: cell-based
Protocol: as §1, §2, §3, §4, §5, §6, §7

[7] = individually treated T, M and E, i.p. 7 days
[8] = triple combination TME 50+80+150 mg/kg i.p. 7 days
[9] = as used in the triple combination for CI

O=c1[nH]cc(F)c(=O)[nH]1 [5FU, 5-Fluorouracil]
cell viability (MTT), in words [1]: reduction in cell viability in a dose-dependent fashion

NC(=O)c1[nH]cnc1N [AIC, 5-amino-imidazole-4-carboxamide]
Detected mass in LC-MS Brain [2, 7]: 123.09 | Detected mass in LC-MS Plasma [2, 7]: 127.02 | Detected mass in LC-MS Brain [2, 8]: 123.05 | Detected mass in LC-MS Plasma [2, 8]: 127.02

COc1cccc2c1C(=O)c1c(O)c3c(c(O)c1C2=O)C[C@@](O)(C(=O)CO)C[C@@H]3O[C@H]1C[C@H](N)[C@H](O)[C@H](C)O1 [DOX, Doxorubicin]
cell viability (MTT), in words [3]: reduction in cell viability in a dose-dependent fashion

CNC(=O)c1cc(Oc2ccc(NC(=O)Nc3ccc(Cl)c(C(F)(F)F)c3)cc2)ccn1 [SOR, Sorafenib]
cell viability (MTT), in words [4]: reduction in cell viability in a dose-dependent fashion

Cn1nnc2c(C(N)=O)ncn2c1=O [TMZ, 3-methyl-3-oxoimidazo[5,1-d] [1,2,3,5] tetrazine-8-carboxamide]
cytoplasmic positivity for VEGF (H-score) (VEGF): 25.83% | toxicity in normal HEK293T cells [5]: higher toxicity | transport across the blood brain barrier, in words ([2]; administered individually and in combination): crossed BBB in the form of their active metabolites | Detected mass in LC-MS Plasma [2, 8]: 198.93 | IC50 ([6]; Homo sapiens, U-87 MG, individual drug, 24 hours, mean ± SD, no unit in table, test concentrations given in μM, read-out: Inhibitory Concentration at 50% (IC50) U87MG Cells): 77 ± 1.14 µM | IC25 U87MG [6, 9]: 18.94 µM | Ki67 nuclear positivity rate (Ki67): 13.14% | IC50 (C6 rat glioma cell line; Rattus norvegicus, C6, individual drug, 24 hours, mean ± SD, no unit in table, test concentrations given in μM, read-out: Inhibitory Concentration at 50% (IC50) C6 Cells): 72 ± 1.32 µM | IC25 C6 (C6 rat glioma cell line; [9]): 31.76 µM
